In paper PMC9607104, “Switching the N-Capping Region from all-L to all-D Amino Acids in a VEGF Mimetic Helical Peptide” (Molecules, 2022):
Square brackets hold non-standard residues; d marks the D form. Peptide text beside a SMILES is read from it.

Experiment: Peptide stability in 50% human serum (RP-HPLC time course)
Assay type: in vitro ADME
Details: 50% aqueous human serum, 37 °C, time points 0, 30 (35), 120 min, RP-HPLC peak area at 220 nm, triplicate
Method: D-amino acids are more resistant to protease degradation. In order to verify the effect of D-amino acid replacement on QK stability in serum, we performed a time-course analysis. Peptides were incubated with 50% diluted human serum and analyzed by RP-HPLC at three different times (0′, 35′ and 120′). The area of the chromatographic peak corresponding to the entire peptide was determined (Figure 6). Overall, peptide QK presents fairly good stability in 50% serum, as almost the 50% is still present after […] of incubation.
Figure 6 Analysis of peptide stability in 50% human serum. […] Data are reported as means of a triplicate experiment.
Briefly, 20 µL of peptide (10 mg/mL stock solution in H2O) were added to 200 µL of 50% aqueous solution of human serum (Sigma-Aldrich) (previously centrifuged at 10,000 rpm for 10 min at 4 °C) and the mixture was incubated at 37 °C. At each time point (0, 30, 120 min), an aliquot of 6 µL was diluted in a ten times volume of H2O and analyzed by RP-HPLC on an Atlantis C18-column (Waters, 5 µm, 4.6 mm × 150 mm) using a linear aqueous acetonitrile gradient containing TFA (0.1%, v/v). Initial condition 5% B, 5−5% B in 5 min, 5−40% B in 27 min, 40−100% B in 5 min, and flow rate 1 mL/min (B = acetonitrile 0.1% TFA). Peptides were detected by recording the absorbance at 220 nm and quantified by their peak areas relative to the initial peak areas (0 min). […]

SMILES: CC[C@H](C)[C@H](NC(=O)CNC(=O)[C@H](CCCCN)NC(=O)[C@H](Cc1ccc(O)cc1)NC(=O)[C@H](CCCCN)NC(=O)[C@H](CC(C)C)NC(=O)[C@H](CCC(N)=O)NC(=O)[C@H](Cc1ccc(O)cc1)NC(=O)[C@H](CC(C)C)NC(=O)[C@H](CCC(=O)O)NC(=O)[C@H](CCC(N)=O)NC(=O)[C@H](Cc1c[nH]c2ccccc12)NC(=O)[C@H](NC(=O)[C@@H](CC(C)C)NC(=O)[C@@H](CCCCN)NC(C)=O)[C@H](C)O)C(N)=O [D-QK, Ac-^DLys-^DLeu-^DThr-Trp-Gln-Glu-Leu-Tyr-Gln-Leu-Lys-Tyr-Lys-Gly-Ile-NH2] (Ac-[dK][dL][dT]WQELYQLKYKGI-NH2)
- effect of the N-terminal D-amino acids on stability in human serum (versus QK): unaffected
